# In article PMC12785453, “Oral Fluid Concentrations and Pharmacological Effects of Clephedrone and Methylone in Humans” (International Journal of Molecular Sciences, 2025):
# Like-named read-outs stand apart in the source and are kept apart here.
# Assays:
# [1] = cited from earlier work
# [2] = cited from earlier work; remark: listed apart in the source
# [3] = tested on: healthy male participants; experiment: Physiological effects (SBP, DBP, HR, T), controlled methylone pilot clinical trial; assay type: in vivo, humans
# Method: (§1) Methylone pharmacology was evaluated in a study designed as a randomized, double-blind, placebo-controlled, crossover clinical trial. Four pilot studies were conducted administering methylone at oral doses of 50 (n = 3), 100 (n = 6), 150 (n = 5), and 200 mg (n = 7). Participants attended 3 experimental sessions separated by a one-week wash-out period and received two doses of methylone (one dose per experimental session) compared to placebo, except in the last pilot study in which participants received one dose of methylone, compared to MDMA and placebo. However, in this manuscript, only the results corresponding to the highest methylone doses (n = 12; 150 and 200 mg; mean dose = 179.2 mg) are presented, to enable comparison with clephedrone self-administration. Participants were recruited by word of mouth in the volunteer database of the clinical pharmacology unit.
# Participants of the naturalistic clephedrone study were summoned at 15:00 h at the private club where sessions were carried out. The club remained closed to the public until the end of the session, approximately at 21:00 h. As a naturalistic study, participants were left free to talk, read, play games, or listen to music in the time between study evaluations. To avoid possible influences between participants, they were asked to refrain from talking about the effects of the self-administered substance. The experimental sessions of the controlled pilot trial were carried out at the Clinical Research Unit (UPIC) of the Germans Trias i Pujol hospital, where participants were summoned at 7:45 a.m. after fasting overnight and remained there for approximately 11 h.
# (§2) Methylone hydrochloride of high purity in powder form was acquired from LGC Standards (Teddington, UK) for the controlled study. The Pharmacy Department of the Hospital Universitari Germans Trias i Pujol was responsible for manufacturing, storing, and dispensing identical and opaque soft gelatin capsules containing 50 mg of methylone or a placebo (maltodextrin). Treatment consisted of 5 capsules that combined methylone and/or a placebo to reach the target dose. Details can be found in the previous article.
# In the controlled methylone study, vital signs monitors (Philips Sure Signs VM4 monitors, Philips, Amsterdam, The Netherlands) were used to measure SBP, DBP, HR, and oral temperature at baseline (−30 and −15 min) and 0.25, 0.50, 0.75, 1.5, 2, 3, 4, 6, 8, 10, and 24 h after administration. For these evaluations, participants rested in hospital beds in a position of back elevation. Furthermore, electrocardiograms were constantly monitored throughout the sessions for safety reasons.
# (§3) For statistical analysis, values of physiological (SBP, DBP, HR, and T) and subjective effects (VAS, ARCI, and VESSPA-SSE) were baseline–adjusted. Maximum effects (Emax) and the time needed to reach maximum effects (Tmax) were determined, and the area under the curve up to 5 h (AUC0–5h) for clephedrone and up to 6 h (AUC0–6h) for methylone was calculated using the trapezoidal rule. Emax and AUC values are presented as mean ± standard deviation, whereas Tmax is presented in median (range).
# (§4) To find possible significant changes through the time course compared to baseline, a Dunnett multiple comparison test was carried out to compare each time point with baseline in both drug conditions. For clephedrone the comparisons were 0–0.5 h, 0–1 h, 0–1.5 h, 0–2 h, 0–3 h, 0–4 h and 0–5 h, and for methylone this analysis included 0–0.25 h, 0–0.5 h, 0–0.75 h, 0–1 h, 0–1.5 h, 0–2 h, 0–3 h, 0–4 h and 0–6 h. Given their different study designs, no comparative analysis between the time courses of both synthetic cathinones was conducted.
# [4] = tested on: healthy male participants; experiment: Subjective effects, ARCI short form, methylone trial; assay type: in vivo, humans; details: 150 or 200 mg oral
# Method: as §1, §2
# Subjective effects were evaluated with visual analog scales (VAS), the short form of the Addiction Research Center Inventory (ARCI), and the Evaluation of Subjective Effects of Substances with Abuse Potential questionnaire (VESSPA-SSE). In addition, the Sensitivity to Drug Reinforcement Questionnaire (SDRQ) and a pharmacological identification class questionnaire were used in the controlled study administering methylone.
# The validated ARCI 49-item short form was used to evaluate and discriminate the subjective following five subscales that correspond to different classes of drugs of abuse: pentobarbital-chlorpromazine-alcohol group (PCAG) is susceptible to sedative effects, morphine-benzedrine group (MBG) is susceptible to euphoric effects, lysergic acid diethylamide (LSD) is susceptible to dysphoria and somatic symptoms, benzedrine (BG) is susceptible to intellectual efficiency and energy, and amphetamine (A) is susceptible to amphetamine-like effects.
# Participants included in the naturalistic clephedrone study completed VAS at baseline, 0.50, 1, 1.5, 2, 3, 4, and 5 h, and ARCI and VESSPA at baseline, 1, 2, 3, 4, and 5 h after self-administering clephedrone. In the controlled study, VAS was performed at baseline and 0.25, 0.50, 0.75, 1, 1.5, 2, 3, 4, 6, 8, 10, and 24 h, and ARCI and VESSPA at baseline and 1, 2, 3, 4, 6, 8, and 10 h after administering methylone. Participants completed SDRQ and VAS sexual desire and arousal at baseline, 1 and 10 h, and the pharmacological class identification questionnaire at 8 h.
# as §3, §4
# [5] = 150 or 200 mg oral, n=12, listed as methylone
# [6] = AUC0–6h, 150 or 200 mg oral, n=12
smiles,measurement,setting,value
"CNC(C)C(=O)c1ccc(Cl)cc1 (stereo not drawn) [Clephedrone, 4-chloromethcathinone]","Blood concentrations, mean",[1]; fatal cases,547 ng/mL
same,"Blood concentrations, mean","[1]; traffic controls, non-fatal cases (n = 9)",21.1 ng/mL
"CNC(C)C(=O)c1ccc2c(c1)OCO2 (stereo not drawn) [Methylone, 3,4-methylenedioxy-N-methylcathinone]",Tmax in plasma,[2],2 h
same,Onset of cardiovascular effects after administration,[3]; 150 or 200 mg oral,0.5 h
same,SBP effects returned to baseline,[3]; 150 or 200 mg oral,3 h
same,DBP Emax,"[3]; 150 or 200 mg oral, n=12",3.75 ± 11.52 mmHg
same,HR Emax,"[3]; 150 or 200 mg oral, n=12",28.75 ± 16.09 bpm
same,SBP Emax,"[3]; 150 or 200 mg oral, n=12",27.04 ± 10.72 mmHg
same,DBP Emax,[3]; [5],3.75 mmHg
same,HR Emax,[3]; [5],28.75 bpm
same,SBP Emax,[3]; [5],27.04 mmHg
same,HR AUC0-5/6 h,[3]; [6],97.07 ± 69.24 bpm·h
same,SBP AUC0-5/6 h,[3]; [6],38.70 ± 26.84 mmHg·h
same,T AUC0-5/6 h,"[3]; AUC0–6h, oral temperature, 150 or 200 mg oral, n=12",0.88 ± 1.34 °C·h
same,"Tolerability, serious adverse events",[3]; all administered doses (150 or 200 mg oral),well tolerated
same,T Emax,"[3]; oral temperature, 150 or 200 mg oral, n=12",0.23 ± 0.34 °C
same,Tmax of effects collected using ARCI,[4],1 h
same,ARCI A (amphetamine-like effects) Emax,[4]; n=12,2.92 ± 1.73 points
same,ARCI BG (intellectual efficiency) Emax,[4]; n=12,1.50 ± 1.09 points
same,ARCI LSD (dysphoria) Emax,[4]; n=12,–0.25 ± 1.29 points
same,ARCI MBG (euphoria) Emax,[4]; n=12,5.92 ± 4.68 points
same,ARCI PCAG (sedation) Emax,[4]; n=12,2.17 ± 3.49 points
same,ARCI A (amphetamine-like effects) AUC0-5/6 h,"[4]; AUC0–6h, n=12",4.33 ± 2.77 points·h
same,ARCI BG (intellectual efficiency) AUC0-5/6 h,"[4]; AUC0–6h, n=12",0.83 ± 1.81 points·h
same,ARCI LSD (dysphoria) AUC0-5/6 h,"[4]; AUC0–6h, n=12",–0.96 ± 1.81 points·h
same,ARCI MBG (euphoria) AUC0-5/6 h,"[4]; AUC0–6h, n=12",8.25 ± 6.89 points·h
same,ARCI PCAG (sedation) AUC0-5/6 h,"[4]; AUC0–6h, n=12",5.46 ± 8.86 points·h
